In ChEMBL document CHEMBL1201862, “PubChem BioAssay data set” (2004):
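Grown in 96-well plates, cells were treated for 48 hours with each compound at five concentrations. Insufficient inhibition: endpoint recorded as highest concentration tested. At the GI50, growth is halved.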 Calls of active or inactive are those of the source. No stated cut-off is given here; in the data, active = GI50 up to about 1.1 µM and inactive = higher.

Key:
Experiment in all cases: NCI-60 cell line screen, 48 h
Hs-578T = test system: Hs-578T
CAKI-1 = test system: CAKI-1
U-251 = test system: U-251
SK-OV-3 = test system: SK-OV-3
UO-31 = test system: UO-31
SF-268 = test system: SF-268
HCT-116 = test system: HCT-116
SNB-75 = test system: SNB-75
OVCAR-3 = test system: OVCAR-3
UACC-62 = test system: UACC-62
IGROV-1 = test system: IGROV-1
HT-29 = test system: HT-29
NCI-H522 = test system: NCI-H522
HOP-92 = test system: HOP-92
M14 = test system: M14
A549 = test system: A549
PC-3 = test system: PC-3
SF-539 = test system: SF-539
HL-60 = test system: HL-60
RXF 393 = test system: RXF 393

Measured: GI50

CC(C)CCNC(=O)C(CC(C)C)NC(=O)[C@H]1O[C@@H]1C(=O)O (some centres not stated)
inactive: Hs-578T > 100 µM | CAKI-1 > 100 µM | U-251 > 100 µM | SK-OV-3 > 100 µM | UO-31 > 100 µM | SF-268 > 100 µM | HCT-116 > 100 µM | SNB-75 > 100 µM | OVCAR-3 > 100 µM | UACC-62 > 100 µM | IGROV-1 > 100 µM | HT-29 > 100 µM | NCI-H522 > 100 µM | HOP-92 > 100 µM | M14 > 100 µM | A549 > 100 µM | PC-3 > 100 µM | SF-539 > 100 µM

Cn1cco/c1=N/c1ccc(Cl)c(Cl)c1
inactive: Hs-578T > 10 µM | CAKI-1 > 10 µM | U-251 > 10 µM | SK-OV-3 > 10 µM | UO-31 > 10 µM | SF-268 > 10 µM | HCT-116 > 10 µM | SNB-75 > 10 µM | OVCAR-3 > 10 µM | UACC-62 > 10 µM | IGROV-1 > 10 µM | HT-29 > 10 µM | NCI-H522 > 10 µM | HOP-92 > 10 µM | M14 > 10 µM | A549 > 10 µM | PC-3 > 10 µM | SF-539 > 10 µM

CC(C)=Cc1cc(CCC/C(C)=C/Cc2c(O)cc(C)c(C(=O)O)c2O)co1
inactive: Hs-578T 26.2 µM | CAKI-1 > 100 µM | U-251 > 100 µM | UO-31 > 100 µM | SF-268 > 100 µM | HCT-116 > 100 µM | SNB-75 > 100 µM | OVCAR-3 > 100 µM | UACC-62 > 100 µM | IGROV-1 > 100 µM | HT-29 > 100 µM | NCI-H522 12.9 µM | HOP-92 > 100 µM | M14 > 100 µM | A549 > 100 µM | PC-3 > 100 µM | SF-539 > 100 µM

O=C1CCCCCCCCCCC1CN1CCCC1 (configuration not stated)
inactive: Hs-578T 17.9 µM | CAKI-1 43.1 µM | U-251 26.7 µM | SK-OV-3 50.9 µM | HL-60 32 µM | UO-31 35.1 µM | SF-268 50 µM | HCT-116 33.4 µM | SNB-75 32.9 µM | OVCAR-3 67.5 µM | UACC-62 17.1 µM | IGROV-1 46 µM | HT-29 17.9 µM | NCI-H522 39.3 µM | RXF 393 15.1 µM | M14 20.1 µM | A549 43.6 µM | PC-3 30.8 µM | SF-539 22.1 µM

O=Cc1c(C(=O)O)[nH]c(=O)[nH]c1=O
inactive: Hs-578T > 100 µM | CAKI-1 > 100 µM | U-251 > 100 µM | SK-OV-3 > 100 µM | HL-60 > 100 µM | UO-31 > 100 µM | SF-268 > 100 µM | HCT-116 > 100 µM | SNB-75 > 100 µM | OVCAR-3 > 100 µM | UACC-62 > 100 µM | IGROV-1 > 100 µM | HT-29 > 100 µM | NCI-H522 58.3 µM | RXF 393 > 100 µM | M14 > 100 µM | A549 > 100 µM | PC-3 > 100 µM | SF-539 > 100 µM

CC(=O)NC1C(OCc2ccccc2)OC(CO)C(O)C1OCC(=O)N1CCCC1C(=O)N[C@@H](CCC(=O)NCCCCNc1c2ccccc2nc2cccc([N+](=O)[O-])c12)C(N)=O (some centres not stated)
inactive: Hs-578T 21.1 µM | CAKI-1 > 100 µM | U-251 18.9 µM | SK-OV-3 99.1 µM | UO-31 45.2 µM | SF-268 31.6 µM | HCT-116 22.9 µM | SNB-75 21.4 µM | OVCAR-3 21.6 µM | IGROV-1 14.8 µM | HT-29 16.7 µM | HOP-92 9.33 µM | M14 16 µM | A549 16 µM | PC-3 18.7 µM | SF-539 77.4 µM

Cc1cc(S(=O)(=O)N/C(=N/N)NCCc2ccccc2)c(S)cc1Cl
inactive: Hs-578T 25.5 µM | CAKI-1 26.4 µM | U-251 16.6 µM | SK-OV-3 23.3 µM | HL-60 44.1 µM | UO-31 27.6 µM | SF-268 28.7 µM | HCT-116 25.1 µM | SNB-75 25.6 µM | OVCAR-3 24.5 µM | UACC-62 18.1 µM | IGROV-1 36 µM | HT-29 31.6 µM | NCI-H522 29.6 µM | RXF 393 21.7 µM | M14 24.1 µM | A549 36.1 µM | PC-3 30.1 µM | SF-539 24 µM

Cn1c2ccccc2c2c3c(c4c5ccccc5n(C)c4c21)C(=O)N(Cc1ccccc1)C3=O
inactive: Hs-578T > 100 µM | CAKI-1 > 100 µM | U-251 > 100 µM | SK-OV-3 > 100 µM | UO-31 > 100 µM | HCT-116 > 100 µM | SNB-75 > 100 µM | UACC-62 > 100 µM | IGROV-1 53.3 µM | HT-29 > 100 µM | NCI-H522 > 100 µM | HOP-92 > 100 µM | M14 > 100 µM | A549 90.2 µM | PC-3 > 100 µM | SF-539 > 100 µM
